Experimental data published in PubChem BioAssay (NCI).
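Five compound concentrations were applied to cells in 96-well plates for 48 hours; endpoints were derived by simple linear interpolation of the resulting dose-response curve. Here, GI50 denotes the concentration required for 50% inhibition of growth. TGI is the concentration that stops growth completely.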

Columns and labels:
Experiment in all cases: growth of human tumour cells (NCI), 48 h
SW-620 colon = system: SW-620 colon
SR leukemia = system: SR leukemia
HOP-92 NSCLC = system: HOP-92 NSCLC
UACC-257 melanoma = system: UACC-257 melanoma
HCT-116 colon = system: HCT-116 colon
OVCAR-5 ovarian = system: OVCAR-5 ovarian
MDA-MB-231 breast = system: MDA-MB-231 breast
HCT-15 colon = system: HCT-15 colon

C=C(CN(CCN1CCOCC1)CC(=C)c1ccc(C(=O)Nc2ccccc2N)cc1)c1ccc(C(=O)Nc2ccccc2N)cc1
GI50 (SW-620 colon): 8.71 µM | TGI (SW-620 colon): 38.5 µM | GI50 (SR leukemia): 11.7 µM | TGI (SR leukemia): > 50 µM | GI50 (HOP-92 NSCLC): 8.35 µM | TGI (HOP-92 NSCLC): 33.8 µM | GI50 (UACC-257 melanoma): 3.68 µM | TGI (UACC-257 melanoma): 13.5 µM | GI50 (HCT-116 colon): 7.68 µM | TGI (HCT-116 colon): 15.3 µM | GI50 (OVCAR-5 ovarian): 7.62 µM | TGI (OVCAR-5 ovarian): 15.2 µM | GI50 (MDA-MB-231 breast): 3.05 µM | TGI (MDA-MB-231 breast): 11.2 µM | GI50 (HCT-15 colon): 10.5 µM | TGI (HCT-15 colon): 43.9 µM

O=C1/C(=C/c2ccc(C(F)(F)F)cc2)COc2ccc(O)cc21
GI50 (SW-620 colon): 1.71 µM | TGI (SW-620 colon): 3.4 µM | GI50 (SR leukemia): 1.21 µM | TGI (SR leukemia): 10.6 µM | GI50 (HOP-92 NSCLC): 11.8 µM | TGI (HOP-92 NSCLC): 24.7 µM | GI50 (UACC-257 melanoma): 8.06 µM | TGI (UACC-257 melanoma): 20.9 µM | GI50 (HCT-116 colon): 1.77 µM | TGI (HCT-116 colon): 3.42 µM | GI50 (OVCAR-5 ovarian): 2.18 µM | TGI (OVCAR-5 ovarian): 5.49 µM | GI50 (MDA-MB-231 breast): 2.36 µM | TGI (MDA-MB-231 breast): 5.65 µM | GI50 (HCT-15 colon): 1.66 µM | TGI (HCT-15 colon): 3.47 µM

CN(C)CCC(=O)NCc1c2nc3ccccc3nc2n2ccccc12
GI50 (SW-620 colon): 58.7 µM | TGI (SW-620 colon): > 100 µM | GI50 (SR leukemia): 16.9 µM | TGI (SR leukemia): 41.8 µM | GI50 (HOP-92 NSCLC): 34.6 µM | TGI (HOP-92 NSCLC): > 100 µM | GI50 (UACC-257 melanoma): 73.1 µM | TGI (UACC-257 melanoma): > 100 µM | GI50 (HCT-116 colon): 21 µM | TGI (HCT-116 colon): 59.7 µM | GI50 (OVCAR-5 ovarian): > 100 µM | TGI (OVCAR-5 ovarian): > 100 µM | GI50 (MDA-MB-231 breast): 24.7 µM | TGI (MDA-MB-231 breast): > 100 µM | GI50 (HCT-15 colon): 48.4 µM | TGI (HCT-15 colon): > 100 µM

CCC(C)c1cnc(CC(C)C)c(=O)[nH]1 (centres undefined)
TGI (SW-620 colon): > 100 µM | TGI (SR leukemia): > 100 µM | TGI (HOP-92 NSCLC): > 100 µM | TGI (UACC-257 melanoma): > 100 µM | TGI (HCT-116 colon): > 100 µM | TGI (OVCAR-5 ovarian): > 100 µM | TGI (MDA-MB-231 breast): > 100 µM | TGI (HCT-15 colon): > 100 µM

NCCCn1c2c(c3ccc([N+](=O)[O-])cc3c1=O)C(=O)c1cc(Cl)ccc1-2
GI50 (SW-620 colon): < 0.01 µM | TGI (SW-620 colon): 0.213 µM | GI50 (SR leukemia): < 0.01 µM | TGI (SR leukemia): 0.0325 µM | GI50 (HOP-92 NSCLC): 0.0542 µM | TGI (HOP-92 NSCLC): 0.544 µM | GI50 (UACC-257 melanoma): 0.0526 µM | TGI (UACC-257 melanoma): 1.31 µM | GI50 (HCT-116 colon): < 0.01 µM | TGI (HCT-116 colon): 0.0182 µM | GI50 (OVCAR-5 ovarian): 0.0265 µM | TGI (OVCAR-5 ovarian): 0.193 µM | GI50 (MDA-MB-231 breast): 0.218 µM | TGI (MDA-MB-231 breast): 0.64 µM | GI50 (HCT-15 colon): 0.0285 µM | TGI (HCT-15 colon): 0.208 µM

C[C@@H]1CCC2[C@@H](C)[C@H](OC(=O)CCC(=O)NCCNC(=O)Cc3cc(=O)oc4cc(N(C)C)ccc34)O[C@@H]3O[C@]4(C)CC[C@@H]1C23OO4 (some centres undefined)
GI50 (SW-620 colon): 0.457 µM | TGI (SW-620 colon): 20.8 µM | GI50 (SR leukemia): 0.561 µM | TGI (SR leukemia): 6.83 µM | GI50 (HOP-92 NSCLC): 2.6 µM | TGI (HOP-92 NSCLC): 16.9 µM | GI50 (UACC-257 melanoma): 4.04 µM | TGI (UACC-257 melanoma): > 100 µM | GI50 (HCT-116 colon): 0.323 µM | TGI (HCT-116 colon): 12.8 µM | GI50 (OVCAR-5 ovarian): 1.28 µM | TGI (OVCAR-5 ovarian): > 76.9 µM | GI50 (MDA-MB-231 breast): 22.6 µM | TGI (MDA-MB-231 breast): > 100 µM | GI50 (HCT-15 colon): 0.318 µM | TGI (HCT-15 colon): 21 µM

CO[C@H]1/C=C/C[C@H](C)[C@@H](C)S(=O)(=O)NC(=O)c2ccc3c(c2)N(C[C@@H]2CC[C@H]21)C[C@@]1(CCCc2cc(Cl)ccc21)CO3
GI50 (SW-620 colon): 2.84 µM | TGI (SW-620 colon): 10.3 µM | GI50 (SR leukemia): 0.67 µM | TGI (SR leukemia): 12.2 µM | GI50 (HOP-92 NSCLC): 1.55 µM | TGI (HOP-92 NSCLC): 3.4 µM | GI50 (UACC-257 melanoma): 2.99 µM | TGI (UACC-257 melanoma): 9.69 µM | GI50 (HCT-116 colon): 2.75 µM | TGI (HCT-116 colon): 8.35 µM | GI50 (OVCAR-5 ovarian): 2.91 µM | TGI (OVCAR-5 ovarian): 11.9 µM | GI50 (MDA-MB-231 breast): 2.11 µM | TGI (MDA-MB-231 breast): 5.64 µM | GI50 (HCT-15 colon): 2.54 µM | TGI (HCT-15 colon): 8.43 µM

CCN1CCN(c2nc(C)cc(N(CCCNc3ccnc4cc(Cl)ccc34)Cc3ccco3)n2)CC1
GI50 (SW-620 colon): 3.12 µM | TGI (SW-620 colon): 13 µM | GI50 (SR leukemia): 2.08 µM | TGI (SR leukemia): 5.73 µM | GI50 (HOP-92 NSCLC): 2.26 µM | TGI (HOP-92 NSCLC): 6.72 µM | GI50 (UACC-257 melanoma): 1.95 µM | TGI (UACC-257 melanoma): 3.79 µM | GI50 (HCT-116 colon): 2.05 µM | TGI (HCT-116 colon): 10.9 µM | GI50 (OVCAR-5 ovarian): 7.9 µM | TGI (OVCAR-5 ovarian): 28.4 µM | GI50 (MDA-MB-231 breast): 3.18 µM | TGI (MDA-MB-231 breast): 12.4 µM | GI50 (HCT-15 colon): 2.34 µM | TGI (HCT-15 colon): 11.6 µM

c1cc(-c2cnn3nc(N4CCOCC4)ccc23)nc(NC2CC2)n1
GI50 (SW-620 colon): 8.9 µM | TGI (SW-620 colon): > 25 µM | GI50 (SR leukemia): 6.48 µM | TGI (SR leukemia): 20 µM | GI50 (HOP-92 NSCLC): 5.64 µM | TGI (HOP-92 NSCLC): > 25 µM | GI50 (UACC-257 melanoma): 7.54 µM | TGI (UACC-257 melanoma): > 25 µM | GI50 (HCT-116 colon): 7.55 µM | TGI (HCT-116 colon): 24.6 µM | GI50 (OVCAR-5 ovarian): 6.64 µM | TGI (OVCAR-5 ovarian): > 22.4 µM | GI50 (MDA-MB-231 breast): 10.2 µM | TGI (MDA-MB-231 breast): > 25 µM | GI50 (HCT-15 colon): 8.66 µM | TGI (HCT-15 colon): > 25 µM

Cc1ccc(C(=O)Nc2ccccc2C(=O)N/N=C(\c2ccccc2)c2ccccn2)cc1
GI50 (SW-620 colon): 0.603 µM | TGI (SW-620 colon): > 100 µM | GI50 (SR leukemia): 0.208 µM | TGI (SR leukemia): > 100 µM | GI50 (HOP-92 NSCLC): 6.27 µM | TGI (HOP-92 NSCLC): > 100 µM | GI50 (UACC-257 melanoma): 0.999 µM | TGI (UACC-257 melanoma): > 100 µM | GI50 (HCT-116 colon): 0.348 µM | TGI (HCT-116 colon): > 100 µM | GI50 (OVCAR-5 ovarian): 0.607 µM | TGI (OVCAR-5 ovarian): > 100 µM | GI50 (MDA-MB-231 breast): 0.517 µM | TGI (MDA-MB-231 breast): > 100 µM | GI50 (HCT-15 colon): 0.06 µM | TGI (HCT-15 colon): > 100 µM

COc1cc(/C=N/O)nc(-c2ccccn2)c1
GI50 (SW-620 colon): 0.415 µM | TGI (SW-620 colon): > 100 µM | GI50 (SR leukemia): 0.284 µM | TGI (SR leukemia): 22.2 µM | GI50 (HOP-92 NSCLC): 0.551 µM | TGI (HOP-92 NSCLC): > 100 µM | GI50 (UACC-257 melanoma): 0.679 µM | TGI (UACC-257 melanoma): 9.43 µM | GI50 (HCT-116 colon): 0.351 µM | TGI (HCT-116 colon): > 100 µM | GI50 (OVCAR-5 ovarian): 0.637 µM | TGI (OVCAR-5 ovarian): > 100 µM | GI50 (MDA-MB-231 breast): 0.541 µM | TGI (MDA-MB-231 breast): > 100 µM | GI50 (HCT-15 colon): 0.197 µM | TGI (HCT-15 colon): > 100 µM

COc1cc2c(cc1-c1c(C)noc1C)ncc1[nH]c(=O)n([C@H](C)c3ccccn3)c12
GI50 (SW-620 colon): 28.1 µM | TGI (SW-620 colon): > 100 µM | GI50 (SR leukemia): 0.0756 µM | TGI (SR leukemia): > 100 µM | GI50 (HOP-92 NSCLC): 0.0677 µM | TGI (HOP-92 NSCLC): 37.3 µM | GI50 (UACC-257 melanoma): 0.415 µM | TGI (UACC-257 melanoma): > 100 µM | GI50 (HCT-116 colon): 1.94 µM | TGI (HCT-116 colon): > 100 µM | GI50 (OVCAR-5 ovarian): 22.4 µM | TGI (OVCAR-5 ovarian): > 100 µM | GI50 (MDA-MB-231 breast): 0.528 µM | TGI (MDA-MB-231 breast): > 100 µM | GI50 (HCT-15 colon): 0.807 µM | TGI (HCT-15 colon): > 100 µM
